Results from PubChem BioAssay AID2060902 (Molecular Pharmacology Branch, DTP, NCI, 2025).

System: 485368-065-R3-J5-PDC spheroids with HUVEC/MSC, viability
Test: Anticancer human tumor 485368-065-R3-J5-PDC patient-derived pancreatic carcinoma cell line growth inhibition [RAS]
Settings: for IC50: curve of first compound; for viability, T/C: stronger effect = lower value
Summary of the method: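 Tumour cells grown as complex spheroids with HUVEC endothelial cells and mesenchymal stem cells, treated with RAS pathway inhibitor combinations. Each agent spans half-log steps from near clinical Cmax, or 10 microM where Cmax is unknown.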

[1] = second compound 0.000949 µM, first compound 0.0316 µM
[2] = second compound 0.000949 µM, first compound 0.1 µM
[3] = second compound 0.000949 µM, first compound 0.316 µM
[4] = second compound 0.000949 µM, first compound 1 µM
[5] = second compound 0.003 µM, first compound 0.0316 µM
[6] = second compound 0.003 µM, first compound 0.1 µM
[7] = second compound 0.003 µM, first compound 0.316 µM
[8] = second compound 0.003 µM, first compound 1 µM
[9] = second compound 0.00949 µM, first compound 0.0316 µM
[10] = second compound 0.00949 µM, first compound 0.1 µM
[11] = second compound 0.00949 µM, first compound 0.316 µM
[12] = second compound 0.00949 µM, first compound 1 µM
[13] = second compound 0.03 µM, first compound 0.0316 µM
[14] = second compound 0.03 µM, first compound 0.1 µM
[15] = second compound 0.03 µM, first compound 0.316 µM
[16] = second compound 0.03 µM, first compound 1 µM
[17] = second compound 0.0949 µM, first compound 0.0316 µM
[18] = second compound 0.0949 µM, first compound 0.1 µM
[19] = second compound 0.0949 µM, first compound 0.316 µM
[20] = second compound 0.0949 µM, first compound 1 µM
[21] = second compound 0.3 µM, first compound 0.0316 µM
[22] = second compound 0.3 µM, first compound 0.1 µM
[23] = second compound 0.3 µM, first compound 0.316 µM
[24] = second compound 0.3 µM, first compound 1 µM
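Note: spheroids exposed to agents for seven days before readout.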

Cc1nc(N2CCC3(CC2)COC(C)C3N)c(CO)nc1Sc1ccnc(N)c1Cl (centres undefined) + CCn1c(-c2cccnc2C(C)OC)c2c3cc(ccc31)N1CCOC(CC(NC(=O)C(C(C)C)N(C)C(=O)C3(F)CCN(C(=O)C#CC(C)(C)N(C)C)CC3)C(=O)N3CCCC(N3)C(=O)OCC(C)(C)C2)C1
IC50 (second compound 0.000949 µM): > 10 µM | IC50 (second compound 0.003 µM): > 10 µM | IC50 (second compound 0.00949 µM): > 10 µM | IC50 (second compound 0.03 µM): > 10 µM | IC50 (second compound 0.0949 µM): > 10 µM | IC50 (second compound 0.3 µM): > 10 µM | viability, T/C [1]: 94.1% | viability, T/C [2]: 108% | viability, T/C [3]: 86.1% | viability, T/C [4]: 79.1% | viability, T/C (second compound 0.000949 µM, first compound 3.16 µM): 78.1% | viability, T/C (second compound 0.000949 µM, first compound 10 µM): 70.2% | viability, T/C [5]: 95.8% | viability, T/C [6]: 98% | viability, T/C [7]: 95.4% | viability, T/C [8]: 84.8% | viability, T/C (second compound 0.003 µM, first compound 3.16 µM): 80.3% | viability, T/C (second compound 0.003 µM, first compound 10 µM): 79.5% | viability, T/C [9]: 90% | viability, T/C [10]: 99.6% | viability, T/C [11]: 97.9% | viability, T/C [12]: 96.2% | viability, T/C (second compound 0.00949 µM, first compound 3.16 µM): 80.4% | viability, T/C (second compound 0.00949 µM, first compound 10 µM): 72.7% | viability, T/C [13]: 104% | viability, T/C [14]: 96.9% | viability, T/C [15]: 85.3% | viability, T/C [16]: 103% | viability, T/C (second compound 0.03 µM, first compound 3.16 µM): 83.9% | viability, T/C (second compound 0.03 µM, first compound 10 µM): 61.7% | viability, T/C [17]: 90.5% | viability, T/C [18]: 92.8% | viability, T/C [19]: 84.2% | viability, T/C [20]: 95.1% | viability, T/C (second compound 0.0949 µM, first compound 3.16 µM): 83.9% | viability, T/C (second compound 0.0949 µM, first compound 10 µM): 74.2% | viability, T/C [21]: 110% | viability, T/C [22]: 94.6% | viability, T/C [23]: 83.2% | viability, T/C [24]: 87.2% | viability, T/C (second compound 0.3 µM, first compound 3.16 µM): 85.5% | viability, T/C (second compound 0.3 µM, first compound 10 µM): 63.3%

CCN1CCN(Cc2ccc(Nc3ncc(F)c(-c4cc(F)c5nc(C)n(C(C)C)c5c4)n3)nc2)CC1 + CCn1c(-c2cc(N3CCN(C)CC3)cnc2C(C)OC)c2c3cc(ccc31)-c1csc(n1)CC(NC(=O)C1CC1C)C(=O)N1CCCC(N1)C(=O)OCC(C)(C)C2
IC50 (second compound 0.000949 µM): < 0.00316 µM | IC50 (second compound 0.003 µM): < 0.00316 µM | IC50 (second compound 0.00949 µM): < 0.00316 µM | IC50 (second compound 0.03 µM): < 0.00316 µM | IC50 (second compound 0.0949 µM): < 0.00316 µM | IC50 (second compound 0.3 µM): < 0.00316 µM | viability, T/C (second compound 0.000949 µM, first compound 0.00316 µM): 31.4% | viability, T/C (second compound 0.000949 µM, first compound 0.01 µM): 27.4% | viability, T/C [1]: 31.6% | viability, T/C [2]: 22.1% | viability, T/C [3]: 28.7% | viability, T/C [4]: 27.1% | viability, T/C (second compound 0.003 µM, first compound 0.00316 µM): 22.1% | viability, T/C (second compound 0.003 µM, first compound 0.01 µM): 21.1% | viability, T/C [5]: 16.8% | viability, T/C [6]: 15.4% | viability, T/C [7]: 18.4% | viability, T/C [8]: 22.4% | viability, T/C (second compound 0.00949 µM, first compound 0.00316 µM): 16.1% | viability, T/C (second compound 0.00949 µM, first compound 0.01 µM): 16.4% | viability, T/C [9]: 11% | viability, T/C [10]: 15.1% | viability, T/C [11]: 14.2% | viability, T/C [12]: 18.3% | viability, T/C (second compound 0.03 µM, first compound 0.00316 µM): 11.1% | viability, T/C (second compound 0.03 µM, first compound 0.01 µM): 11.8% | viability, T/C [13]: 9.68% | viability, T/C [14]: 13.2% | viability, T/C [15]: 13.1% | viability, T/C [16]: 16.5% | viability, T/C (second compound 0.0949 µM, first compound 0.00316 µM): 8.73% | viability, T/C (second compound 0.0949 µM, first compound 0.01 µM): 10.7% | viability, T/C [17]: 9.07% | viability, T/C [18]: 8.91% | viability, T/C [19]: 12.2% | viability, T/C [20]: 15.6% | viability, T/C (second compound 0.3 µM, first compound 0.00316 µM): 8.74% | viability, T/C (second compound 0.3 µM, first compound 0.01 µM): 8.83% | viability, T/C [21]: 7.48% | viability, T/C [22]: 9.84% | viability, T/C [23]: 10.8% | viability, T/C [24]: 15.2%
